Reference: patent US6124337A, “Methods and formulations for modulating the human sexual response” (priority 1999, dated 2000)
Counter-ions that a name gives are not always drawn.

Legend:
male erectile ability = assay: Single blind trial of rapidly dissolving oral formulation on male erectile ability; assay type: in vivo, human; conditions: 40 mg dose
Experimental: In order to test the ability of a rapidly dissolving oral formulation of phentolamine mesylate on erectile ability, a single blind trial was conducted.
All patients had impotence of organic etiology. Patients were selected for inclusion in the trial based medical history and physical examination with a duration of impotence of less than 3-4 years. Each patient was given two tablets: a rapidly dissolving tablet containing 40 mg of phentolamine mesylate (see Table 1), and a placebo tablet lacking phentolamine mesylate.
Patients were asked to take one tablet 20 to 30 minutes before attempting coitus. One or more days after using the first tablet, the patients repeated the process with the second tablet.
Patients were advised not to consume alcohol prior to using the tablets and were told not to expect erection without sexual stimulation. […] Patients were also asked to report side effects.

impotentia erectionis = conditions: buccal, 100 I.U. three times a day for 14 days; cited from earlier work

## Cc1ccc(N(CC2=NCCN2)c2cccc(O)c2)cc1 [phentolamine mesylate]
Male erectile ability
  Success in improving erectile ability: significant success

## CC[C@H](C)[C@@H]1NC(=O)[C@H](Cc2ccc(O)cc2)NC(=O)[C@@H](N)CSSC[C@@H](C(=O)N2CCC[C@H]2C(=O)N[C@@H](CC(C)C)C(=O)NCC(N)=O)NC(=O)[C@H](CC(N)=O)NC(=O)[C@H](CCC(N)=O)NC1=O [oxytocin]
Impotentia erectionis
  Patients with improvement of impotentia erectionis: 12 of the 16
